# Assay results published in patent publication US4816482A, “Radioprotective agents having an amino-thioalkyl structure” (priority 1983, dated 1989).
# Where a name gives a salt, the structure may show the parent alone. Read-outs that look alike come from different tables or passages of the source.
# Tests used:
# [1] = system: mice; assay: Radioprotective activity: survival at the 30th day after irradiation; format: in vivo; conditions: for responders at 400 mg/kg: 400 mg/kg i.p.; for responders at 1000 mg/kg: 1,000 mg/kg i.p.; for responders at 625 mg/kg: 625 mg/kg i.p.; for radioprotective activity (in words): mouse, in vivo; for responders at 500 mg/kg: 500 mg/kg i.p.
# Experimental: This study of radioprotective activity was carried out according to a technique described by M. Fatome at al., Eur. J. Med. Chem. 1977, 12, (1), 93. […] This dose is equal to 950 Rad.
# More complete studies are recorded in Table II.
# [2] = system: mice; assay: Acute toxicity (LD50), i.p.; format: in vivo; conditions: for LD50: Table I
# [3] = Acute toxicity (LD50), i.p.; format: in vivo, mice; conditions: mouse, in vivo, ip
# [4] = Mus musculus, light or radiation study, ip, 720 h, Table I, 750 mg/kg i.p., 15' before irradiation at 900 or 950 Rad, read-out: % survival at the 30th day
# [5] = Mus musculus, light or radiation study, ip, 720 h, Table I, 15' before irradiation at 900 or 950 Rad, read-out: % survival at the 30th day
# [6] = Mus musculus, light or radiation study, ip, 720 h, read-out: % survival at the 30th day, Table I, 750 mg/kg i.p., 15' before irradiation at 900 or 950 Rad
# [7] = Mus musculus, light or radiation study, ip, 720 h, read-out: % survival at 30 days, Table II, 750 mg/kg i.p., 15' before irradiation, 900 Rad
# [8] = Mus musculus, light or radiation study, ip, 720 h, read-out: % survival at 30 days, Table II, 750 mg/kg i.p., 2 hours before irradiation, 900 Rad
# [9] = Mus musculus, light or radiation study, ip, 720 h, Table II, 15' before irradiation, 900 Rad, read-out: % survival at 30 days
# [10] = Mus musculus, light or radiation study, ip, 720 h, Table II, 15' before irradiation, 1,100 Rad, read-out: % survival at 30 days
# [11] = Mus musculus, light or radiation study, ip, 720 h, Table II, 15' before irradiation, 950 Rad, read-out: % survival at 30 days
compound,measurement,setting,value
"Br.CC(=O)SCCNC(=O)CN [Example 2, HYDROBROMIDE]",responders at 187 mg/kg,"[1]; Mus musculus, light or radiation study, ip, 720 h, Table I, 187 mg/kg i.p., 15' before irradiation at 900 or 950 Rad, read-out: % survival at the 30th day",67%
same,responders at 750 mg/kg,[1]; [4],100%
Br.CC(=O)SCCNC(=O)CN [Example 2],LD50,[2],"1,500 mg/kg"
"Br.CC(=O)SCCNC(=O)[C@H](C)N [Example 4, HYDROBROMIDE]",responders at 188 mg/kg,"[1]; Mus musculus, light or radiation study, ip, 720 h, Table I, 188 mg/kg i.p., 15' before irradiation at 900 or 950 Rad",40%
same,responders at 750 mg/kg,[1]; [4],80%
Br.CC(=O)SCCNC(=O)[C@H](C)N [Example 4],LD50,[2],"1,500 mg/kg"
"Br.CC(=O)SCCNC(=O)CCCN [Example 6, HYDROBROMIDE]",responders at 400 mg/kg,[1]; [5],60%
Br.CC(=O)SCCNC(=O)CCCN [Example 6],LD50,[2],800 mg/kg
CC(=O)SCCNC(=O)CN [Example 8],% survival at the 30th day,"[1]; Table I, 750 mg/kg i.p., 15' before irradiation at 900 or 950 Rad",93%
same,% survival at 30 days,"[1]; Table II, 187 mg/kg i.p., 15' before irradiation, 900 Rad",0%
same,% survival at 30 days,"[1]; Table II, 750 mg/kg i.p., 15' before irradiation, 900 Rad",93%
same,% survival at 30 days,"[1]; Table II, 750 mg/kg i.p., 15' before irradiation, 1,100 Rad",50%
same,LD50,[3]; Table I,1200 mg/kg
same,LD50,[3]; Table II,1200 mg/kg
"NCC(=O)NCCSC(=O)C(Cl)Cl.O=C(O)C(F)(F)F [Example 10, N-GLYCYL-S-(DICHLOROACETYL)CYSTEAMINE TRIFLUOROACETATE]",responders at 800 mg/kg,"[1]; Mus musculus, light or radiation study, ip, 720 h, Table I, 800 mg/kg i.p., 15' before irradiation at 900 or 950 Rad",40%
same,LD50,[2],800 mg/kg
"Br.Br.NCC(=O)NCCSSCCNC(=O)CN [Example 16, N,N'-[…] DIHYDROBROMIDE]",responders at 750 mg/kg,[1]; [6],100%
same,LD50,[2],"1,500 mg/kg"
"NCC(=O)NCCSSCCNC(=O)CN.O=C(O)C(F)(F)F.O=C(O)C(F)(F)F [Example 18, N,N'-[…] DI(TRIFLUOROACETATE)]",responders at 47 mg/kg,"[1]; Mus musculus, light or radiation study, ip, 720 h, read-out: % survival at 30 days, Table II, 47 mg/kg i.p., 15' before irradiation, 900 Rad",0%
same,responders at 94 mg/kg,"[1]; Mus musculus, light or radiation study, ip, 720 h, read-out: % survival at 30 days, Table II, 94 mg/kg i.p., 15' before irradiation, 900 Rad",30%
same,responders at 187 mg/kg,"[1]; Mus musculus, light or radiation study, ip, 720 h, read-out: % survival at 30 days, Table II, 187 mg/kg i.p., 15' before irradiation, 900 Rad",90%
same,responders at 187 mg/kg,"[1]; Mus musculus, light or radiation study, ip, 720 h, read-out: % survival at 30 days, Table II, 187 mg/kg i.p., 15' before irradiation, 1,100 Rad",0%
same,responders at 750 mg/kg,[1]; [7],100%
same,responders at 750 mg/kg,"[1]; Mus musculus, light or radiation study, ip, 720 h, read-out: % survival at 30 days, Table II, 750 mg/kg i.p., 15' before irradiation, 1,300 Rad",10%
same,responders at 750 mg/kg,[1]; [8],60%
same,responders at 1000 mg/kg,"[1]; Mus musculus, light or radiation study, ip, 720 h, read-out: % survival at 30 days, Table II, 15' before irradiation, 1,300 Rad",0%
same,% survival at the 30th day,"[1]; ip, 750 mg/kg, 720 h",100%
same,LD50,[3]; Table I,1200 mg/kg
same,LD50,[3]; Table II,1250 mg/kg
"Br.Br.C[C@H](N)C(=O)NCCSSCCNC(=O)[C@H](C)N [Example 19, N,N'-[…] DIHYDROBROMIDE]",responders at 400 mg/kg,"[1]; Mus musculus, light or radiation study, ip, 720 h, read-out: % survival at the 30th day, Table I, 15' before irradiation at 900 or 950 Rad",100%
same,LD50,[3]; Table I,800 mg/kg
"CC(=O)SCCNC(=O)[C@H](C)N.O=C(O)C(F)(F)F [Example 22, TRIFLUOROACETATE]",responders at 156 mg/kg,"[1]; Mus musculus, ip, 720 h, Table II, 156 mg/kg i.p., time and Rad not given, read-out: % survival at 30 days",0%
same,responders at 625 mg/kg,[1]; [5],100%
same,responders at 625 mg/kg,"[1]; Mus musculus, light or radiation study, ip, 720 h, Table II, 2 (hours, cut off) before irradiation, 900 Rad, read-out: % survival at 30 days",10%
same,responders at 625 mg/kg,[1]; [9],100%
same,responders at 625 mg/kg,[1]; [10],50%
CC(=O)SCCNC(=O)[C@H](C)N.O=C(O)C(F)(F)F [Example 22],radioprotective activity (in words),[1],good radioprotection
same,LD50,[3]; Table II,1250 mg/kg
same,LD50,[2],"1,250 mg/kg"
same,toxicity (in words),"[2]; mouse, in vivo",low toxicity
"CC(=O)NC(C)(C)CSC(=O)CN.O=C(O)C(F)(F)F [Example 24, TRIFLUOROACETATE]",responders at 750 mg/kg,[1]; [7],70%
same,responders at 750 mg/kg,"[1]; Mus musculus, light or radiation study, ip, 720 h, read-out: % survival at 30 days, Table II, 750 mg/kg i.p., 15' before irradiation, 1,100 Rad",13%
same,responders at 750 mg/kg,[1]; [8],50%
same,responders at 750 mg/kg,[1]; [6],70%
CC(=O)NC(C)(C)CSC(=O)CN.O=C(O)C(F)(F)F [Example 24],radioprotective activity (in words),[1],show radioprotective activity
same,LD50,[3]; Table I,1500 mg/kg
same,LD50,[3]; Table II,1500 mg/kg
"CC(=O)SCC(C)(C)NC(=O)CN [Example 26, TRIFLUOROACETATE]",responders at 750 mg/kg,"[1]; Mus musculus, ip, 720 h, Table II, 750 mg/kg i.p., 4th entry, time and Rad not given, read-out: % survival at 30 days",0%
same,responders at 750 mg/kg,[1]; [4],60%
same,responders at 187 mg/kg,"[1]; Mus musculus, light or radiation study, ip, 720 h, Table II, 187 mg/kg i.p., 15' before irradiation, 900 Rad, read-out: % survival at 30 days",40%
same,responders at 750 mg/kg,"[1]; Mus musculus, light or radiation study, ip, 720 h, Table II, 750 mg/kg i.p., 15' before irradiation, 900 Rad, read-out: % survival at 30 days",60%
same,responders at 750 mg/kg,"[1]; Mus musculus, light or radiation study, ip, 720 h, Table II, 750 mg/kg i.p., 2 hours before irradiation, 900 Rad, read-out: % survival at 30 days",70%
same,radioprotective activity (in words),[1],show radioprotective activity
same,LD50,[3]; Table I,1200 mg/kg
same,LD50,[3]; Table II,1200 mg/kg
"CC(=O)SCCNC(=O)CNC(=O)CN.O=C(O)C(F)(F)F [Example 28, TRIFLUOROACETATE]",responders at 1000 mg/kg,[1]; [5],100%
same,responders at 1000 mg/kg,[1]; [9],100%
same,responders at 1000 mg/kg,[1]; [10],0%
same,responders at 1500 mg/kg,"[1]; Mus musculus, light or radiation study, ip, 720 h, Table II, 1,500 mg/kg i.p., 15' before irradiation, Rad not printed (1,100 in text), read-out: % survival at 30 days",100%
CC(=O)SCCNC(=O)CNC(=O)CN.O=C(O)C(F)(F)F [Example 28],survival at 30 days,"[1]; mice, 1,500 mg/kg (i.p.) 15 minutes before irradiation of 1,100 Rad",100%
same,LD50,[3],> 2000 mg/kg
same,LD50,[3]; Table I,> 2000 mg/kg
same,LD50,[3]; Table II,> 2000 mg/kg
"CC(=O)OC(CNC(=O)CN)CSSCC(CNC(=O)CN)OC(C)=O (stereo not drawn) [Example 31, 1,2-DI(3-GLYCYLAMINO-2-ACETOXYPROPYL)[…](TRIFLUOROACETATE)]",% survival at 30 days,"[1]; ip, 93.7 mg/kg, 720 h",0%
same,% survival at the 30th day,"[1]; ip, 375 mg/kg",60%
same,LD50,[3]; Table I,750 mg/kg
same,LD50,[3]; Table II,750 mg/kg
"CC(=O)NCCSC(=O)CN.O=C(O)C(F)(F)F [Example 34, TRIFLUOROACETATE]",responders at 500 mg/kg,[1]; [5],70%
same,responders at 125 mg/kg,"[1]; Mus musculus, light or radiation study, ip, 720 h, Table II, 125 mg/kg i.p., 15' before irradiation, 950 Rad, read-out: % survival at 30 days",20%
same,responders at 500 mg/kg,[1]; [11],70%
"NCC(=O)NCC(=O)NCCSSCCNC(=O)CNC(=O)CN.O=C(O)C(F)(F)F.O=C(O)C(F)(F)F [Example 36, N,N'-DI(GLYCYLGLYCYL)CYSTAMINE DI(TRIFLUOROACETATE)]",responders at 1000 mg/kg,[1]; [5],30%
same,responders at 250 mg/kg,"[1]; Mus musculus, light or radiation study, ip, 720 h, Table II, 250 mg/kg i.p., 15' before irradiation, 950 Rad, read-out: % survival at 30 days",10%
same,responders at 1000 mg/kg,[1]; [11],30%
same,LD50,[3]; Table I,2000 mg/kg
same,LD50,[3]; Table II,2000 mg/kg
